These results are taken from a melting point compilation (Tetko et al.; mined from patent text by program, amines drawn as free bases though some values may be those of a salt).

Each structure is given as a SMILES string.

Turning to `CCCc1nn(C)c2c(=O)[nH]c(-c3cc(Br)ccc3OCC)nc12`, the melting point is 157 to 159 °C.

Molecule `OC1CSC(Oc2ccc(-c3cccnc3F)nc2Cl)C(O)C1O` (stereo not drawn) had a melting point of 153 °C.

With `CCCNC(=O)C=Cc1ccc2ccn(Cc3ccc(C(=O)O)cc3OC)c2c1`, the melting point lay within 210 to 212 °C.

Molecule `CS(=O)(=O)N1CCC2OC2CC1` (stereo not drawn) yielded a melting point of 133 to 134 °C.

Consider `CC1(C)Oc2ccc(OC(F)(F)F)cc2[C@@H](N2Cc3cccnc3C2=O)[C@@H]1O` (relative stereo), for which the melting point fell in the range of 248 to 250 °C.

`CCC1CC(=O)N(Cc2ccc(NS(C)(=O)=O)cc2)N=C1c1ccc(OC)c(OC2CCCC2)c1` (stereo not drawn) came in with a melting point of 69 °C.

The molecule `CCOC(OCC)c1cc(NC(c2ccccc2)(c2ccccc2)c2ccccc2)c(F)c(Cc2ccc(F)cc2)n1` came in with a melting point of 129 to 130 °C.

`O=C(NCCOc1ccc(CC(Oc2ccccc2)C(=O)O)cc1)c1ccc(-c2ccccn2)cc1` (stereo not drawn) yielded a melting point of 149 to 151 °C.

`O=C1SC(CCCC#Cc2ccc(Cl)cc2)(S(=O)(=O)c2ccc(I)cc2)C(=O)N1Cc1ccc([N+](=O)[O-])cc1` (stereo not drawn) returned a melting point of 172 to 175 °C.

Take `CN1C(=O)C2(COc3cc4c(cc32)OCCO4)c2c(C(=O)Oc3ccccc3)cccc21` (stereo not drawn): the melting point fell in the range of 184 to 186 °C.

As to `CCCCOCCCn1c(CCCC)nc2cnc3cccnc3c21`, the melting point lay in the range of 56.5 to 57.5 °C.

As to `O=c1c2ccccc2nc(-c2cc(-c3ccc(Cl)cc3)c(N3CCOCC3)s2)n1-c1ccccc1`, the melting point fell in the range of 229 to 230 °C.

`CCOC(=O)c1c2n(c3cc(Cl)c(F)cc3c1=O)C(COC1CCCCO1)CS2` (stereo not drawn): the melting point fell in the range of 183 to 186 °C.

Take `COc1c(C=CC(=O)O)cccc1Oc1ccccc1Cl`: the melting point lay in the range of 145 to 147 °C.

`O=C(Nc1ccc(OCCCc2cccnc2)c2ccccc12)c1cc(F)cc(N2CCOCC2)c1` came in with a melting point of 64 to 66 °C.

Take `COC(=O)[C@H](Cc1cccc2ccccc12)NC(=O)[C@H](CC(=O)OC(C)(C)C)NC(=O)c1cccc(N)c1`: the melting point was in the range of 70 to 72 °C.

On to `CCC1(C)Cc2cc(OC)c(Cl)c(Cl)c2C1=O` (stereo not drawn), for which the melting point is 121 °C.

Take `Cn1cnc2cc(NC(=O)c3cc4cc(F)ncc4n3Cc3cccc(F)c3)ccc21`: the melting point fell in the range of 279 to 281 °C.

`Cn1c(=O)n(CCCC2(C)OCCO2)c(=O)c2c1ncn2Cc1ccccc1` displayed a melting point of 104 to 105 °C.

`CC1c2ccccc2COc2ccc(C(=O)O)cc21` (stereo not drawn) came in with a melting point of 224 to 226 °C.

For `CN(c1n[nH]c2ncnc(Nc3cccc(Cl)c3)c12)C1CCCCC1`, the melting point fell in the range of 188 to 190 °C.

For `O=S1(=O)N=C(NC2CC2)Nc2cc(Cl)sc21`, the melting point lay in the range of 272 to 273 °C.

`CCCOc1ccc2c(c1)[C@H](c1ccc(OC)cc1OCC(=O)O)[C@@H](CC(=O)O)[C@@H]2c1ccc2c(c1)OCO2` (racemic) showed a melting point of 210 to 212 °C.

`O=c1cc(NCCN2CCN(c3cc(Cl)cc4c3OCCO4)CC2)cn[nH]1` displayed a melting point of 115 to 117 °C.

As to `CN(C)NC(=O)Nc1cccc2c1C(=O)c1c-2n[nH]c1-c1ccc(N2CCNCC2)cc1`, the melting point came to 238 °C.

As to `CCC1CC2C3CCc4cc(OC)ccc4C3CCC2(CC)C1=O` (stereo not drawn), the melting point was in the range of 101 to 102 °C.

With `CCCCC(=O)Nc1ccc(Cl)c(-n2nc(CC)n(Cc3ccc(-c4ccccc4S(=O)(=O)NC(=O)OC(C)(C)C)cc3F)c2=O)c1`, the melting point lay within 143 to 145 °C.

On to `O=[N+]([O-])c1ccc(-c2noc(-c3ccccn3)n2)cc1`, for which the melting point was 202 to 203 °C.

In turn, `O=c1c2cccnc2n(-c2cccc([N+](=O)[O-])c2)c(=O)n1CCO` had a melting point of 212 to 213 °C.

Molecule `Cc1ncc2c(c1OCC(=O)O)COC2c1ccc(Cl)cc1` (stereo not drawn) registered a melting point of 226 to 230 °C.

Molecule `CC(C)(C)OC(=O)NC1Cc2ccccc2N(c2ccccc2)C1` (stereo not drawn) returned a melting point of 139 to 141 °C.

In the case of `O=C(NCCN(CCNC(=O)OCCO)c1nc(Cl)nc(N(CCNC(=O)OCCO)CCNC(=O)OCCO)n1)OCCO`, the melting point came to 174 °C.

The molecule `CCOC(=O)COc1c(C)c(C(F)(F)F)nc(C(F)(F)F)c1C(=O)OCC` returned a melting point of 42 to 44 °C.

As to `COC(=O)c1cc(O)cc(Cl)c1O`, the melting point amounted to 126 °C.

`Cc1ccc(Nc2c3ccccc3nc3ccccc23)cc1[N+](=O)[O-]`: the melting point was more than 280 °C.

On to `CN(C)C1CCN(c2nc(N3CCOCC3)c3ncnc(NCc4ccccc4)c3n2)CC1`, for which the melting point was 148 to 150 °C.

Molecule `COc1cc(C(C)C)ccc1C1COc2c(C)c(C)c(Br)c(C)c21` (stereo not drawn) registered a melting point of 102 to 103 °C.

Consider `OCCc1c(-c2ccccc2)nc(Cl)n2ncnc12`, for which the melting point was in the range of 104 to 105 °C.

Turning to `CCON=C(CC)C1=C(O)CC(c2cc3c(cc2[N+](=O)[O-])OCO3)CC1=O` (stereo not drawn), the melting point was 122 °C.

`C=CCOc1cc(COC2CCCCO2)ccc1OCCI` (stereo not drawn) came in with a melting point of 103 to 104 °C.

Molecule `COc1cc2c(cc1Cl)C(=O)Cc1ccccc1S2` came in with a melting point of 171 to 173 °C.

In the case of `N#Cc1cc2cc(C(O)(C(F)(F)F)C(F)(F)F)ccc2[nH]1`, the melting point fell in the range of 183 to 185 °C.

`C(=C\c1cc(/C=C/c2ccc3cc[nH]c3c2)[nH]n1)/c1ccc2cc[nH]c2c1` gave a melting point of 289 to 291 °C.

`CN(C)CCN(C1CCN(C)CC1)S(=O)(=O)c1ccc(Nc2nccc(Nc3ccc(F)cc3)n2)cc1` had a melting point of 135 to 137 °C.

For `CCNC(=O)c1ccc(N2CCN(Cc3cc4c(c(OC)c3)OC(C)C(=O)N4)CC2)c(Cl)c1` (stereo not drawn), the melting point lay within 119 to 121 °C.

`CN1CCC(=C2c3ccccc3Sc3ccc(S(=O)(=O)C(F)(F)F)cc32)CC1` came in with a melting point of 125 to 128 °C.

In turn, `COc1cc(C(=O)N(C(C)C)C2CCCCC2)ccc1Cn1c(-c2ccccc2Cl)nc2cccnc21` had a melting point of 121 to 123 °C.

`Clc1cc(-c2cnc3c(c2)N(Cc2c(Cl)cccc2Cl)CCN3)ccn1`: the melting point is 194 °C.

`COc1ccc(CC(O)c2ccccn2)cc1` (stereo not drawn) showed a melting point of 110 to 112 °C.

Turning to `O=C(NCCc1ccc(Cl)cc1)C1=C(NCCc2ccc(Cl)cc2)CS(=O)(=O)N(Cc2ccc(Cl)c(Cl)c2)c2ccccc21`, the melting point was 119 to 121 °C.

Take `CCN1C(=S)NNC1c1ccccc1NC(C)=O` (stereo not drawn): the melting point fell in the range of 193 to 194 °C.

Take `O=C(O)COc1c(-c2cccc(Cl)c2)cc(C(=O)NCCCCCCc2ccccc2)cc1-c1cccc(Cl)c1`: the melting point fell in the range of 178 to 181 °C.

With `O=C(O)C#CC(=O)c1ccc2c(c1)OCO2`, the melting point was 122 to 124 °C.

`COC[C@H](C)NC(=O)c1c[nH]c2ncc(-c3nn(C)c4cc(F)c(F)cc34)nc12` registered a melting point of 295 to 297 °C.

In the case of `CSc1nc2c(Cl)cc(Cl)c([N+](=O)[O-])c2s1`, the melting point was 130 to 132 °C.

As to `CC1=C(C)C(=O)C(C(CCCCCC(=O)O)c2cccnc2)=C(C)C1=O` (stereo not drawn), the melting point fell in the range of 126 to 127 °C.

`CC(=O)NC[C@H]1CN(c2ccc(C3CCN(C(=O)c4ccno4)CC3)c(F)c2)C(=O)O1` showed a melting point of 290 to 292 °C.

With `COC(=O)C(CCN(C(C)C)C(C)C)(CC(=O)N1CCCCC1)c1ccccc1Cl` (stereo not drawn), the melting point fell in the range of 104 to 106 °C.

Consider `CCCn1nnn(-c2ccc(N3CCN(c4ccc(OC)cc4)CC3)cc2)c1=O`, for which the melting point came out at 190 °C.

On to `O=C(O)CN1C(=O)C(=CC=Cc2ccccc2)SC1=S`, for which the melting point was more than 217 °C.

`N#Cc1cc(N)ccc1N1CCC(OC(=O)c2ccccc2)CC1` came in with a melting point of 154 to 155 °C.

As for `COC(=O)Cc1ccc(OCCNC(=O)C2Cc3ccccc3N2S(=O)(=O)c2ccc(-c3cc(C(F)(F)F)ccc3Cl)cc2)c(OC)c1` (stereo not drawn), the melting point lay within 51 to 58 °C.

`O=C(O)CCNC(=O)NCC(CS)c1ccccc1` (stereo not drawn): the melting point lay within 88 to 90 °C.

In the case of `COC(=O)c1c(C)c(OC)cc(O[Si](C)(C)C(C)(C)C)c1C=O`, the melting point lay within 125 to 131 °C.

Molecule `Nc1n[nH]c2cc(CN3CCN(Cc4cc5ccc(Cl)cc5s4)CC3=O)ccc12` registered a melting point of 246 to 248 °C.

`NCC1Cc2cc(Cl)cc(-c3cc(Cl)ccc3Cl)c2O1` (stereo not drawn): the melting point lay within 160 to 162 °C.

Regarding `CN1C(=O)C(C(=O)Nc2ccc(Oc3ccc(C(F)(F)F)cn3)cc2)C(=O)N(C)C1=O`, the melting point lay in the range of 180 to 181 °C.

With `N#CC1CC2(c3ccccc3)SC13c1ccccc1CCN3C2=O` (stereo not drawn), the melting point lay within 225 to 226 °C.

Regarding `O=C(O)[C@@H]1C[C@H](C2CCCCC2)CN1C(=O)CP(=O)(O)CCCCc1ccccc1`, the melting point lay in the range of 175 to 176 °C.

In the case of `CC(O)c1ccc(C2=CCCCC2)cc1` (stereo not drawn), the melting point was 60 to 62 °C.

In turn, `O=C1CCC(N2Cc3cc(CNC(=O)Nc4ccc(Cl)c(-c5nc6ccccc6[nH]5)c4)ccc3C2=O)C(=O)N1` (stereo not drawn) gave a melting point of 275 to 277 °C.

As for `CC(C)OC(=O)c1cc(-n2c(=O)c3c(n(C)c2=O)CCC3)c(F)cc1Br`, the melting point was in the range of 116 to 120 °C.

The molecule `COc1cc(C(=O)NS(=O)(=O)c2ccccc2)ccc1CBr` displayed a melting point of 159 to 160 °C.

`CCCc1cc(N2CCN(c3ccncc3)CC2)ccc1OCCCC(=O)OCC` came in with a melting point of 65 to 67 °C.

Turning to `CCCCN(Cc1ccc(-c2ccccc2-c2nnnn2C(c2ccccc2)(c2ccccc2)c2ccccc2)cc1)c1nc(C)cc(C)n1`, the melting point was in the range of 131 to 133 °C.

The molecule `CCOC(=O)N1CCN(Cc2nc3cccnc3n2CCO)CC1` showed a melting point of 117 °C.

`Nc1ccnc(N)c1I` showed a melting point of 140 °C.

Turning to `CN(C)C=Cc1nc2ccccc2c(=O)n1-c1ccccc1Cl`, the melting point was 228 to 230 °C.

Regarding `CC(C)(C)c1cc(CCc2cc(CO)cc(CCc3cc(C(C)(C)C)cc(C(C)(C)C)c3)c2)cc(C(C)(C)C)c1`, the melting point worked out at 101 °C.

Molecule `COC(=O)N(CC(=O)Nc1ccc(S(N)(=O)=O)cc1Cl)c1ccccc1` showed a melting point of 196 to 198 °C.

`N=C(N)c1ccc(O)cc1`: the melting point was found to be 160 °C.

The molecule `COc1ccc(-n2nc(C(F)(F)F)nc2-c2ccc(S(N)(=O)=O)cc2)cc1` yielded a melting point of 228 °C.

`CC1(C)OC2OC(C3NC(=O)CC3O)C(O)C2O1` (stereo not drawn) came in with a melting point of 263 to 265 °C.

A word on the melting point: it is the temperature of the solid-liquid transition.
